Measured values taken from patent US20180273528A1 (LES LABORATOIRES SERVIER, priority 2015, published 2018).

Tests used:
DYRK1A [1] = molecular target: T1, DYRK1A (Homo sapiens, UniProt Q13627); assay: Cellular DYRK1 autophosphorylation assay in U2-OS cells; type: cell-based; design: full-length, wild-type human DYRK1A (NM_001396) with an HA tag; expressed in transfected cells; host or cells: human U2-OS osteosarcoma cells, transient transfection of a pcDNA3.1 plasmid; conditions: U2-OS cells transfected with HA-tagged human DYRK1A, 5 hours exposure; read-out: IC50 (μM) P-Ser520-Dyrk1A -Cell assay
Procedure: On day 2, cells were exposed to a range of concentrations of the test compounds of the invention for 5 hours. […] The relative levels of phospho-Ser520-DYRK1A were assayed using either western blotting or the Mesoscale ELISA platform. For analysis by western blot, lysates were diluted into Laemmli sample buffer (Bio-Rad) containing 5% v/v β-mercaptoethanol, heated for 5 min at 95° C., and resolved on Tris-glycine gels or NuPage Bis-Tris gels (Novex; Invitrogen). Biotinylated molecular weight standards (Cell Signaling Technology) were included in all gels. Proteins were transferred to nitrocellulose membranes (Hybond, ECL; Amersham), which were blocked in Tris-buffered saline/0.1% tween 20 (TBST) containing 5% milk, and probed at 4° C. overnight with anti-phospho-Ser520-DYRK1A antibody (Eurogentec SE6974-75; 0.23 μg/ml in 5% BSA) or anti DYRK1A antibody (Abnova H00001859; 0.5 μg/ml in 5% milk). Peroxidase-conjugated secondary antibodies were diluted into 5% milk and applied to membranes for 1 h at 20° C. Chemiluminescence detection was performed using the ECL plus western blotting detection kit (Amersham) and was recorded on ECL plus hyperfilm (Amersham). Blots were scanned using the Bio-Rad GS-800 calibrated densitometer and quantitative analysis of western blots was performed using TotalLab software (Amersham). IC50 values for inhibition of phospho-Ser520-DYRK1A were calculated from dose-response curves plotting the ratio between phospho-Ser520-DYRK1A and total DYRK1A signals at each concentration. […] Anti-phospho-Ser520-DYRK1A antibody (Eurogentec SE6974-75; […]) and anti DYRK1A antibody (Abnova H00001859; 3 μg/ml) was then added for 1 hour at RT, followed by addition of Sulfa-TAG anti-rabbit detection antibody (ref MSD R32AB; 1 μg/ml) and Sulfa-TAG anti-mouse detection antibody (ref MSD R32-AC-1; 1 μg/ml). After a further 1 hour, Read Buffer was added and plates were read on the Sector Imager 2400 (Mesoscale). IC50 values for inhibition of phospho-Ser520-DYRK1A were calculated from dose-response curves.

DYRK1A [2] = molecular target: T1, DYRK1A; assay: Kinase TR-FRET assay, DYRK1A; type: biochemical; design: full-length, wild-type human DYRK1A (NM_001396) with an HA tag; expressed in transfected cells; host or cells: human U2-OS osteosarcoma cells, transient transfection of a pcDNA3.1 plasmid; conditions: full-length human kinase, 10 μM ATP
Procedure: (§1) Inhibition of the enzymatic activity of human kinases was evaluated in a Time-Resolved Fluorescence Resonance Energy Transfer (TR-FRET) assay in 384-well reaction plates. […] Test compounds of the invention were added in reaction buffer at a range of concentrations from 0.1 nM to 30 μM. Following addition of EDTA (Sigma E7889, 10 mM) to stop the reaction, Europium-labelled mouse monoclonal antibody recognizing phospho-Thr232 in MBP (Perkin Elmer TRF0201, 1 nM) was added.

[3] = molecular target: T2, His-TEV-DYRK1A Kinase domain (aa127-485) (Homo sapiens, UniProt Q13627); assay: Kinase ADP assay (ADP Hunter), DYRK1A kinase domain; type: biochemical; conditions: 20 μM ATP
T2 construct: His-TEV-DYRK1A Kinase domain (aa127-485); His tag (N); TEV protease cleavage site (N)
In short: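 Readout is ADP Hunter fluorescence at 590 nm, developed 20 min at 30 °C after the kinase step. That step ran 10 min at 30 °C in Hepes pH 7.4 (10 mM MgCl2, 1 mM EGTA, 0.02% Tween20) containing 20 μM ATP, 40 μM peptide and 20 nM enzyme plus compound.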

DYRK1B = molecular target: T3, DYRK1B (Homo sapiens, UniProt Q9Y463); assay: Kinase TR-FRET assay, DYRK1B; type: biochemical; conditions: full-length human kinase, 10 μM ATP
T3 construct: full-length human kinases from Carna Biosciences; purchased Carna Biosciences 04-131
T3 sequence (Q9Y463 whole entry): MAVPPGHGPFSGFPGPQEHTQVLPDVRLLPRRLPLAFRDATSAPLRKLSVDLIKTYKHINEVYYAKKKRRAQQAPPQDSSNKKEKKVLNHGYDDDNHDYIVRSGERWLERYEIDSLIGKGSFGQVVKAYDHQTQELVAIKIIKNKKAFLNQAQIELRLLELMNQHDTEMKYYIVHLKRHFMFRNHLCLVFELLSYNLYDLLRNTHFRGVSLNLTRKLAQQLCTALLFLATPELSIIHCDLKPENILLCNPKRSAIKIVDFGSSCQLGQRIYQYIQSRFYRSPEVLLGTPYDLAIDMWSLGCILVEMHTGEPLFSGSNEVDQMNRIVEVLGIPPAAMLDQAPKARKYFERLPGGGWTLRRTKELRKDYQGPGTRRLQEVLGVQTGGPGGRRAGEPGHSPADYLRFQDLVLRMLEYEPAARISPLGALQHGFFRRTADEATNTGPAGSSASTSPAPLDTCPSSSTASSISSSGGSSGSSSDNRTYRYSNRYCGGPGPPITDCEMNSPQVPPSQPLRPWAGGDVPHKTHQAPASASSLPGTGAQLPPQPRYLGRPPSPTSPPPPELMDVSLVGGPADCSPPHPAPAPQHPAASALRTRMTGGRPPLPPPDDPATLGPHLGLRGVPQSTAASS
Procedure: as §1

Row | Structure (SMILES) | IC50 (DYRK1A [1]) [µM] | IC50 (DYRK1A [2]) [µM] | IC50 [3] [µM] | IC50 (DYRK1B) [µM]
1 | Cc1nc2ccc(-c3cc(N)nc(N)c3)nc2n1CCC1CC1 [Example 17, 4-[3-(2-cyclopropylethyl)-2-methyl-3H-imidazo[4,5-b]pyridin-5-yl]pyridine-2,6-diamine] | 0.063 | 0.006 | 0.011 | –
2 | CCC(CC)Cn1c(C)nc2ccc(-c3cc(N)nc(N)c3)nc21 [Example 18, 4-[3-(2-ethylbutyl)-2-methyl-3H-imidazo[4,5-b]pyridin-5-yl]pyridine-2,6-diamine] | 0.108 | 0.002 | 0.013 | –
3 | Cc1cc([C@@H](C)n2c(C)nc3ccc(-c4cc(N)nc(N)c4)nc32)ccn1 [Example 32, 4-{2-methyl-3-[(I R)-1-(2-methylpyridin-4-yl)ethyl]-3H-imidazo[4,5-b]pyridin-5-yl}pyridine-2,6-diamine] | – | 0.095 | 0.037 | –
4 | CCC(C)n1c(C)nc2ccc(-c3cc(N)nc(N)c3)nc21 (stereo not shown) [Example 33, 4-[3-(butan-2-yl)-2-methyl-3H-imidazo[4,5-b]pyridin-5-yl]pyridine-2,6-diamine] | – | 0.045 | 0.018 | –
5 | CCOC(=O)N1CCC(n2c(C)nc3ccc(-c4cc(N)nc(N)c4)nc32)CC1 [Example 35] | – | 0.012 | 0.008 | –
6 | Cc1nc2ccc(-c3cc(N)nc(N)c3)nc2n1CC(O)CO (stereo not shown) [Example 37, 3-[5-(2,6-diaminopyridin-4-yl)-2-methyl-3H-imidazo[4,5-b]pyridin-3-yl]propane-1,2-diol] | – | 0.052 | 0.027 | –
7 | Cc1nc2ccc(-c3cc(N)nc(N)c3)nc2n1C1CCN(C(=O)C(C)C)CC1 [Example 38, 1-{4-[5-(2,6-diaminopyridin-4-yl)-2-methyl-3H-imidazo[4,5-b]pyridin-3-yl]piperidin-1-yl}-2-methylpropan-1-one] | – | 0.028 | 0.008 | –
8 | COc1cc(Cl)ccc1Cn1c(C)nc2ccc(-c3cc(N)nc(N)c3)nc21 [Example 39, 4-[3-(4-chloro-2-methoxybenzyl)-2-methyl-3H-imidazo[4,5-b]pyridin-5-yl]pyridine-2,6-diamine] | – | 0.245 | 0.045 | –
9 | Cc1nc2ccc(-c3cc(N)nc(N)c3)nc2n1Cc1ccc(C#N)cc1 [Example 40, 4-{[5-(2,6-diaminopyridin-4-yl)-2-methyl-3H-imidazo[4,5-b]pyridin-3-yl]methyl}benzonitrile] | – | 0.154 | 0.187 | –
10 | Cc1nc2ccc(-c3cc(N)nc(N)c3)nc2n1Cc1ccc(OC(F)F)cc1 [Example 43, 4-{3-[4-(difluoromethoxy)benzyl]-2-methyl-3H-imidazo[4,5-b]pyridin-5-yl}pyridine-2,6-diamine] | – | 0.116 | 0.109 | –
11 | CSCCCn1c(C)nc2ccc(-c3cc(N)nc(N)c3)nc21 [Example 44, 4-{2-methyl-3-[3-(methylsulfanyl)propyl]-3H-imidazo[4,5-b]pyridin-5-yl}pyridine-2,6-diamine] | 0.023 | 0.019 | 0.011 | –
12 | Cc1nn(C)c(C)c1Cn1c(C)nc2ccc(-c3cc(N)nc(N)c3)nc21 [Example 45, 4-{2-methyl-3-[(3,5-trimethyl-1H-pyrazol-4-yl)methyl]-3H-imidazo[4,5-b]pyridin-5-yl}pyridine-2,6-diamine] | – | 0.177 | 0.055 | –
13 | Cc1nc2ccc(-c3cc(N)nc(N)c3)nc2n1Cc1cc(F)ccc1F [Example 46, 4-[3-(2,5-difluorobenzyl)-2-methyl-3H-imidazo[4,5-b]pyridin-5-yl]pyridine-2,6-diamine] | – | 0.056 | 0.035 | –
14 | Cc1nc2ccc(-c3cc(N)nc(N)c3)nc2n1Cc1cccc(Cl)c1 [Example 48, 4-[3-(3-chlorobenzyl)-2-methyl-3H-imidazo[4,5-b]pyridin-5-yl]pyridine-2,6-diamine] | – | 0.116 | 0.056 | –
15 | Cc1nc2ccc(-c3cc(N)nc(N)c3)nc2n1CCC(C)(C)C [Example 52, 4-[3-(3,3-dimethylbutyl)-2-methyl-3H-imidazo[4,5-b]pyridin-5-yl]pyridine-2,6-diamine] | – | 0.006 | 0.006 | 0.008
16 | Cc1nc2ccc(-c3cc(N)nc(N)c3)nc2n1C(C)(C)c1ccccc1 [Example 60, 4-[2-methyl-3-(2-phenylpropan-2-yl)-3H-imidazo[4,5-b]pyridin-5-yl]pyridine-2,6-diamine] | – | 0.149 | 0.51 | –

The next lines start with the values.

Row | IC50 (DYRK1A [1]) [µM] | IC50 (DYRK1A [2]) [µM] | IC50 [3] [µM] | IC50 (DYRK1B) [µM] | Structure (SMILES)
17 | – | 0.166 | 0.781 | – | Cc1nc2ccc(-c3cc(N)nc(N)c3)nc2n1C1CCCc2ccccc21 (stereo not shown) [Example 62, 4-[2-methyl-3-(1,2,3,4-tetrahydronaphthalen-1-yl)-3H-imidazo[4,5-b]pyridin-5-yl]pyridine-2,6-diamine]
18 | – | 0.104 | 0.903 | – | CCC(c1ccccc1)n1c(C)nc2ccc(-c3cc(N)nc(N)c3)nc21 (stereo not shown) [Example 67, 4-[2-methyl-3-(1-phenylpropyl)-3H-imidazo[4,5-b]pyridin-5-yl]pyridine-2,6-diamine]
19 | – | 0.002 | 0.007 | – | COc1ccccc1CCCn1c(C)nc2ccc(-c3cc(N)nc(N)c3)nc21 [Example 69, 4-{3-[3-(2-methoxyphenyl)propyl]-2-methyl-3H-imidazo[4,5-b]pyridin-5-yl}pyridine-2,6-diamine]
20 | – | 0.012 | 0.005 | – | Cc1nc2ccc(-c3cc(N)nc(N)c3)nc2n1C1CC2CCC1C2 (stereo not shown) [Example 155, 4-[3-(bicyclo[2.2.1]hept-2-yl)-2-methyl-3H-imidazo[4,5-b]pyridin-5-yl]pyridine-2,6-diamine]
21 | – | 0.008 | 0.014 | 0.016 | CCc1nc2ccc(-c3cc(N)nc(N)c3)nc2n1C1Cc2ccccc2C1 [Example 158, 4-[3-(2,3-dihydro-1H-inden-2-yl)-2-ethyl-3H-imidazo[4,5-b]pyridin-5-yl]pyridine-2,6-diamine]
22 | – | 0.004 | 0.01 | 0.012 | Cn1c(C(F)F)nc2ccc(-c3cc(N)nc(N)c3)nc21 [Example 228, 4-[2-(difluoromethyl)-3-methyl-3H-imidazo[4,5-b]pyridin-5-yl]pyridine-2,6-diamine]
23 | – | 0.061 | 0.081 | – | Cn1c(C(F)(F)F)nc2ccc(-c3cc(N)nc(N)c3)nc21 [Example 229, 4-[3-methyl-2-(trifluoromethyl)-3H-imidazo[4,5-b]pyridin-5-yl]pyridine-2,6-diamine]
24 | – | 0.221 | 0.928 | – | CCCCn1c(C)nc2ccc(-c3cc(N)nc(NC(=O)COc4ccccc4)c3)nc21 [Example 230, N-[6-amino-4-(3-butyl-2-methyl-3H-imidazo[4,5-b]pyridin-5-yl)pyridin-2-yl]-2-phenoxyacetamide]
25 | – | 0.224 | 0.303 | – | CCCCn1c(C)nc2ccc(-c3cc(N)nc(NC(=O)c4ccccc4Cl)c3)nc21 [Example 233, N-[6-amino-4-(3-butyl-2-methyl-3H-imidazo[4,5-b]pyridin-5-yl)pyridin-2-yl]-2-chlorobenzamide]
26 | – | 0.09 | 0.236 | – | CCCCn1c(C)nc2ccc(-c3cc(N)nc(NC(=O)C4CCCCC4)c3)nc21 [Example 234, N-[6-amino-4-(3-butyl-2-methyl-3H-imidazo[4,5-b]pyridin-5-yl)pyridin-2-yl]cyclohexanecarboxamide]
